# Molecular target: Human immunodeficiency virus type 1 protease (Human immunodeficiency virus 1, UniProt Q72874)
# Assay: Inhibitory activity against purified HIV-1 protease (BH10) at a pH of 4.7 and a final enzyme concentration of 0.45-1.1 nM
smiles,measurement,value
CC(C)c1ccccc1Sc1c(O)cc(-c2cc(Cl)cc(Cl)c2)oc1=O,IC50,26 nM
CCc1cccc(-c2cc(O)c(Sc3ccccc3C(C)C)c(=O)o2)c1,IC50,262 nM
Cc1ccc(-c2cc(O)c(Sc3ccccc3C(C)C)c(=O)o2)cc1,IC50,59 nM
CC(C)c1ccccc1Sc1c(O)cc(-c2cccc(O)c2)oc1=O,IC50,89 nM
CC(C)c1ccccc1Sc1c(O)cc(-c2cccc(-c3ccccc3)c2)oc1=O,IC50,38 nM
Cc1ccccc1-c1cc(O)c(Sc2ccccc2C(C)C)c(=O)o1,IC50,1340 nM
CC(C)c1ccccc1Sc1c(O)cc(-c2ccc(C#N)cc2)oc1=O,IC50,205 nM
CC(C)c1ccccc1Sc1c(O)cc(-c2ccc(O)c(C(=O)O)c2)oc1=O,IC50,292 nM
CC(C)c1ccccc1Sc1c(O)cc(-c2cccc(C(F)(F)F)c2)oc1=O,IC50,76 nM
CCOC(=O)c1cccc(-c2cc(O)c(Sc3ccccc3C(C)C)c(=O)o2)c1,IC50,1930 nM
CC(C)c1ccccc1Sc1c(O)cc(-c2ccc([N+](=O)[O-])cc2)oc1=O,IC50,191 nM
CC(C)c1ccccc1Sc1c(O)cc(-c2ccccc2Cl)oc1=O,IC50,225 nM
CC(C)c1ccccc1Sc1c(O)cc(-c2cccc(Cl)c2)oc1=O,IC50,23 nM
CCOC(=O)c1ccc(-c2cc(O)c(Sc3ccccc3C(C)C)c(=O)o2)cc1,IC50,35 nM
CC(C)(C)NC(=O)[C@@H]1CCCCN1C[C@@H](O)[C@H](Cc1ccccc1)NC(=O)[C@H](CC(N)=O)NC(=O)c1ccc2ccccc2n1,IC50,10 nM
COc1ccccc1-c1cc(O)c(Sc2ccccc2C(C)C)c(=O)o1,IC50,1420 nM
CC(C)c1ccccc1Sc1c(O)cc(-c2cccc(N(C)C)c2)oc1=O,IC50,114 nM
CC(C)c1ccccc1Sc1c(O)cc(-c2ccc(O)cc2)oc1=O,IC50,54 nM
CCOC(=O)c1cc(-c2cc(O)c(Sc3ccccc3C(C)C)c(=O)o2)ccc1O,IC50,148 nM
CC(C)c1ccccc1Sc1c(O)cc(-c2cccc(C(=O)O)c2)oc1=O,IC50,151 nM
COC(=O)c1cccc(-c2cc(O)c(Sc3ccccc3C(C)C)c(=O)o2)c1,IC50,80 nM
CC(C)c1ccccc1Sc1c(O)cc(-c2ccc(Cl)c(Cl)c2)oc1=O,IC50,22 nM
COC(=O)c1cc(-c2cc(O)c(Sc3ccccc3C(C)C)c(=O)o2)ccc1O,IC50,62 nM
CC(C)c1ccccc1Sc1c(O)cc(-c2ccc(C(N)=O)cc2)oc1=O,IC50,135 nM
CC(C)c1ccccc1Sc1c(O)cc(-c2ccc(F)cc2)oc1=O,IC50,124 nM
Cc1cccc(-c2cc(O)c(Sc3ccccc3C(C)C)c(=O)o2)c1,IC50,14 nM
CC(C)c1ccccc1Sc1c(O)cc(-c2ccc(C(=O)O)cc2)oc1=O,IC50,68 nM
CC(C)c1ccccc1Sc1c(O)cc(-c2ccc(Cl)cc2)oc1=O,IC50,76 nM
CC(C)c1ccccc1Sc1c(O)cc(-c2cccc([N+](=O)[O-])c2)oc1=O,IC50,67 nM
Cc1cc(C)cc(-c2cc(O)c(Sc3ccccc3C(C)C)c(=O)o2)c1,IC50,15 nM
COc1ccc(-c2cc(O)c(Sc3ccccc3C(C)C)c(=O)o2)cc1,IC50,83 nM

# Source: ChEMBL document CHEMBL1129760, “A topliss tree analysis of the HIV-protease inhibitory activity of 6-phenyl-4-hydroxy-pyran-2-ones” (Bioorg Med Chem Lett, 1996)
